pIC50: −log10 of the molar value. Structures can show the parent of a compound that is named as a salt.
Biological target: T1, human clotting factor VIIa (Homo sapiens, UniProt P08709)
T1 construct: a human clotting factor VIIa (hereinafter, “Factor VIIa”) purified sample; purchased Enzyme Research Laboratories HFVIIa
Experiment: Inhibitory activity against clotting factor VIIa (chromogenic substrate Spectrozyme FVIIa, TF/Factor VIIa enzyme solution)
Type: biochemical
Details: human Factor VIIa 5 nmol/L with human TF 10 nmol/L, room temperature 40 minutes, 405 nm
How it was run: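 Human Factor VIIa (5 nmol/L) with human TF (10 nmol/L) in Tris-BSA buffer pH 7.4 containing 15 mmol/L CaCl2 and cephalin, with Spectrozyme FVIIa substrate. Reaction 40 min at room temperature; 4-nitroanilide read at 405 nm. IC50 by non-linear regression over 100 μmol/L–0.1 nmol/L.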

T1 sequence (P08709 213-466 limits assumed): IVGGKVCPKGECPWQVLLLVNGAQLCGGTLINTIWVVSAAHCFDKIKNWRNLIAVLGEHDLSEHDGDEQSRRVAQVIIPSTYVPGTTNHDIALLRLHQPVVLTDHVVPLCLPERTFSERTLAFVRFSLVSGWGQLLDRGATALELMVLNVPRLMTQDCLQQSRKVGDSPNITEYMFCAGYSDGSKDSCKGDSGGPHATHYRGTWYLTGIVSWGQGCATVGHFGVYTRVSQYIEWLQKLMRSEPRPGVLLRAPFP
T1 sequence (P08709 61-212 limits assumed): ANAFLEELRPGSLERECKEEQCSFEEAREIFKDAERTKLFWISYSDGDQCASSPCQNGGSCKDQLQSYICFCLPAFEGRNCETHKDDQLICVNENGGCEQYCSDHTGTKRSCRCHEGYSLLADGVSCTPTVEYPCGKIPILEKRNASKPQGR
T1 sequence (P13726 33-295 partner): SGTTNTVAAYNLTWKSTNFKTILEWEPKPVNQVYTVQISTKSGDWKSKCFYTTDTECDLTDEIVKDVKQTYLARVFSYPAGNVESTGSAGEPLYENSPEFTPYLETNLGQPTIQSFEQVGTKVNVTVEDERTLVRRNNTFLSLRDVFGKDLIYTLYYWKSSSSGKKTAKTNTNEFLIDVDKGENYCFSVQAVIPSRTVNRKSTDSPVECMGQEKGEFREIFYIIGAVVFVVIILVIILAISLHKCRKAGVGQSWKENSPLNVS

Row | pIC50 | Structure (SMILES)
1 | 7.62 | COc1cc(C(Nc2ccc(C(=N)N)cc2)c2nn(-c3ncccn3)c(=O)[nH]2)cc(CO)c1OC (stereo not drawn) [Example 23, 4-{[(5-hydroxymethyl-3,4-dimethoxyphenyl)-(5-oxo-1-pyrimidin-2-yl-4,5-dihydro-1H-[1,2,4]triazol-3-yl)methyl]amino}benzamidine acetate]
2 | 7.82 | COc1cc(C(Nc2ccc(C(=N)N)cc2)c2nn(-c3ncccn3)c(=O)[nH]2)cc(C(C)O)c1OC (stereo not drawn) [Example 25, 4-({[3-(1-hydroxyethyl)-4,5-dimethoxyphenyl]-(5-oxo-1-pyrimidin-2-yl-4,5-dihydro-1H-[1,2,4]triazol-3-yl)methyl}amino)benzamidine acetate]
3 | 7.29 | COc1cc(C(Nc2ccc(C(=N)N)cc2)c2nn(-c3ncccn3)c(=O)[nH]2)cc(OC)c1OC (stereo not drawn) [Example 86, 4-{[(5-oxo-1-pyrimidin-2-yl-4,5-dihydro-1H-[1,2,4]triazol-3-yl)-(3,4,5-trimethoxyphenyl)methyl]amino}benzamidine acetate]
4 | 7.50 | COc1cc(C(Nc2ccc(C(=N)N)cc2)c2nn(-c3ccccc3C(N)=O)c(=O)[nH]2)ccc1OCC(=O)N(C)C (stereo not drawn) [Example 105, 2-{3-[(4-carbamimidoyl-phenylamino)-(4-dimethylcarbamoylmethoxy-3-methoxyphenyl)methyl]-5-oxo-4,5-dihydro-1H-[1,2,4]triazol-1-yl}benzamide trifluoroacetate]
5 | 7.64 | CCOc1cc(C(Nc2ccc(C(=N)N)cc2)c2nn(-c3ncccn3)c(=O)[nH]2)ccc1OCC#N (stereo not drawn) [Example 114, 4-{[(4-cyanomethoxy-3-ethoxyphenyl)-(5-oxo-1-pyrimidin-2-yl-4,5-dihydro-1H-[1,2,4]triazol-3-yl)methyl]amino}benzamidine trifluoroacetate]
6 | 8.00 | COc1cc(F)c(C(Nc2ccc(C(=N)N)cc2)c2nn(-c3ncccc3OC)c(=O)[nH]2)cc1OC (stereo not drawn) [Example 124, 4-({(2-fluoro-4,5-dimethoxyphenyl)-[1-(3-methoxypyridin-2-yl)-5-oxo-4,5-dihydro-1H-[1,2,4]triazol-3-yl]methyl}amino)benzamidine acetate]
7 | 7.99 | COc1cc(F)c(C(Nc2ccc(C(=N)N)cc2)c2nn(-c3ncccc3F)c(=O)[nH]2)cc1OC (stereo not drawn) [Example 125, 4-({(2-fluoro-4,5-dimethoxyphenyl)-[1-(3-fluoropyridin-2-yl)-5-oxo-4,5-dihydro-1H-[1,2,4]triazol-3-yl]methyl}amino)benzamidine acetate]
8 | 7.96 | CCOc1cc(C(Nc2ccc(C(=N)N)cc2)c2nn(-c3ncccc3OC)c(=O)[nH]2)ccc1OCC(=O)NC (stereo not drawn) [Example 126, 2-(4-{(4-carbamimidoylphenylamino)-[1-(3-methoxypyridin-2-yl)-5-oxo-4,5-dihydro-1H-[1,2,4]triazol-3-yl]methyl}-2-ethoxyphenoxy)-N-methyl-acetamide acetate]
9 | 8.03 | CCOc1cc(C(Nc2ccc(C(=N)N)cc2)c2nn(-c3ncccc3C)c(=O)[nH]2)ccc1OCC(=O)NC (stereo not drawn) [Example 127, 2-(4-{(4-carbamimidoylphenylamino)-[1-(3-methylpyridin-2-yl)-5-oxo-4,5-dihydro-1H-[1,2,4]triazol-3-yl]methyl}-2-ethoxyphenoxy)-N-methylacetamide acetate]
10 | 8.00 | CCOc1cc(C(Nc2ccc(C(=N)N)cc2)c2nn(-c3ncccc3C)c(=O)[nH]2)ccc1OCCOC (stereo not drawn) [Example 128, 4-({[3-ethoxy-4-(2-methoxyethoxy)phenyl]-[1-(3-methylpyridin-2-yl)-5-oxo-4,5-dihydro-1H-[1,2,4]triazol-3-yl]methyl}amino)benzamidine acetate]
11 | 7.93 | COc1cc(F)c(C(Nc2ccc(C(=N)N)cc2)c2nn(-c3ncccc3Br)c(=O)[nH]2)cc1OC (stereo not drawn) [Example 134, 4-({[1-(3-bromopyridin-2-yl)-5-oxo-4,5-dihydro-1H-[1,2,4]triazol-3-yl]-(2-fluoro-4,5-dimethoxyphenyl)methyl}amino)benzamidine acetate]
12 | 7.77 | COc1cc(F)c(C(Nc2ccc(C(=N)N)cc2)c2nn(-c3ncccc3N)c(=O)[nH]2)cc1OC (stereo not drawn) [Example 138, 4-({[1-(3-aminopyridin-2-yl)-5-oxo-4,5-dihydro-1H-[1,2,4]triazol-3-yl]-(2-fluoro-4,5-dimethoxyphenyl)methyl}amino)benzamidine trifluoroacetate]

Continued, compound first:

Row | Structure (SMILES) | pIC50
13 | COc1cc(OCCF)c(F)c(C(Nc2ccc(C(=N)N)cc2)c2nn(-c3cccc(N)n3)c(=O)[nH]2)c1 (stereo not drawn) [Example 51, 4-({[1-(6-aminopyridin-2-yl)-5-oxo-4,5-dihydro-1H-[1,2,4]triazol-3-yl]-[2-fluoro-3-(2-fluoroethoxy)-5-methoxyphenyl]methyl}amino)benzamidine trifluoroacetate] | 8.29
14 | COc1cc(C(Nc2ccc(C(=N)N)cc2)c2nn(-c3ncccc3N)c(=O)[nH]2)cc2c1OCOC2 (stereo not drawn) [Example 57, 4-({[1-(3-aminopyridin-2-yl)-5-oxo-4,5-dihydro-1H-[1,2,4]triazol-3-yl]-(8-methoxy-4H-benzo[1,3]dioxin-6-yl)methyl}amino)benzamidine acetate] | 8.05
15 | CCc1cc(OCC#N)cc(C(Nc2ccc(C(=N)N)cc2)c2nn(-c3ncccn3)c(=O)[nH]2)c1 (stereo not drawn) [Example 77, 4-{[(3-cyanomethoxy-5-ethylphenyl)-(5-oxo-1-pyrimidin-2-yl-4,5-dihydro-1H-[1,2,4]triazol-3-yl)methyl]amino}benzamidine acetate] | 8.06
16 | CCOc1cc(COC)cc(C(Nc2ccc(C(=N)N)cc2)c2nn(-c3ncccn3)c(=O)[nH]2)c1 (stereo not drawn) [Example 83, 4-{[(3-ethoxy-5-methoxymethylphenyl)-(5-oxo-1-pyrimidin-2-yl-4,5-dihydro-1H-[1,2,4]triazol-3-yl)methyl]amino}benzamidine acetate] | 7.61
17 | CCOc1cc(CF)cc(C(Nc2ccc(C(=N)N)cc2)c2nn(-c3ncccn3)c(=O)[nH]2)c1 (stereo not drawn) [Example 84, 4-{[(3-ethoxy-5-fluoromethylphenyl)-(5-oxo-1-pyrimidin-2-yl-4,5-dihydro-1H-[1,2,4]triazol-3-yl)methyl]amino}benzamidine acetate] | 7.77
18 | COCCOc1c(OC)cc(C(Nc2ccc(C(=N)N)cc2)c2nn(-c3ccccc3OC)c(=O)[nH]2)cc1OC (stereo not drawn) [Example 87, 4-({[3,5-dimethoxy-4-(2-methoxyethoxy)phenyl]-[1-(2-methoxyphenyl)-5-oxo-4,5-dihydro-1H-[1,2,4]triazol-3-yl]methyl}amino)benzamidine acetate] | 8.38
19 | CCOc1cccc(C(Nc2ccc(C(=N)N)cc2)c2nn(-c3ncccn3)c(=O)[nH]2)c1 (stereo not drawn) [Example 90, 4-{[(3-ethoxyphenyl)-(5-oxo-1-pyrimidin-2-yl-4,5-dihydro-1H-[1,2,4]triazol-3-yl)methyl]amino}benzamidine acetate] | 7.18
20 | COc1ccccc1-n1nc(C(Nc2ccc(C(=N)N)cc2)c2cc(C)cc(OCCF)c2F)[nH]c1=O (stereo not drawn) [Example 91, 4-({[2-fluoro-3-(2-fluoroethoxy)-5-methylphenyl]-[1-(2-methoxyphenyl)-5-oxo-4,5-dihydro-1H-[1,2,4]triazol-3-yl]methyl}amino)benzamidine trifluoroacetate] | 8.19
21 | COc1cc(F)c(C(Nc2ccc(C(=N)N)cc2)c2nn(-c3ccccc3N)c(=O)[nH]2)cc1OC (stereo not drawn) [Example 107, 4-({[1-(2-aminophenyl)-5-oxo-4,5-dihydro-1H-[1,2,4]triazol-3-yl]-(2-fluoro-4,5-dimethoxyphenyl)methyl}amino)benzamidine trifluoroacetate] | 8.37
22 | COc1ccccc1-n1nc(C(Nc2ccc(C(=N)N)cc2)c2cc(C)c(OC)c(C)c2)[nH]c1=O (stereo not drawn) [Example 112, 4-({(4-methoxy-3,5-dimethylphenyl)-[1-(2-methoxyphenyl)-5-oxo-4,5-dihydro-1H-[1,2,4]triazol-3-yl]methyl}amino)benzamidine acetate] | 8.14
23 | CCc1cc(OCC(=O)N(C)C)c(F)c(C(Nc2ccc(C(=N)N)cc2)c2nn(-c3ccccc3NC(=O)OC)c(=O)[nH]2)c1 (stereo not drawn) [Example 135, (2-{3-[(4-carbamimidoylphenylamino)-(3-dimethylcarbamoylmethoxy-5-ethyl-2-fluorophenyl)methyl]-5-oxo-4,5-dihydro-1H-[1,2,4]triazol-1-yl}phenyl)carbamic acid methyl ester trifluoroacetate] | 8.07
24 | CCc1cc(OCCN(C)C)c(F)c(C(Nc2ccc(C(=N)N)cc2)c2nn(-c3ccccc3N)c(=O)[nH]2)c1 (stereo not drawn) [Example 139, 4-({[1-(2-aminophenyl)-5-oxo-4,5-dihydro-1H-[1,2,4]triazol-3-yl]-[3-(2-dimethylaminoethoxy)-5-ethyl-2-fluorophenyl]methyl}amino)benzamidine bistrifluoroacetate] | 8.42
25 | CCc1cc(OCCN(C)C)c(F)c(C(Nc2ccc(C(=N)N)cc2)c2nn(-c3ccccn3)c(=O)[nH]2)c1 (stereo not drawn) [Example 140, 4-({[3-(2-dimethylaminoethoxy)-5-ethyl-2-fluorophenyl]-(5-oxo-1-pyridin-2-yl-4,5-dihydro-1H-[1,2,4]triazol-3-yl)methyl}amino)benzamidine bistrifluoroacetate] | 8.28
26 | CCc1cc(OC(C)CN(C)C)c(F)c(C(Nc2ccc(C(=N)N)cc2)c2nn(-c3ccccn3)c(=O)[nH]2)c1 (stereo not drawn) [Example 141, 4-({[3-(2-dimethylamino-1-methylethoxy)-5-ethyl-2-fluorophenyl]-(5-oxo-1-pyridin-2-yl-4,5-dihydro-1H-[1,2,4]triazol-3-yl)methyl}amino)benzamidine bistrifluoroacetate] | 8.30
27 | CCc1cc(OCC(C)(C)CN(C)C)c(F)c(C(Nc2ccc(C(=N)N)cc2)c2nn(-c3ccccc3C(=O)O)c(=O)[nH]2)c1 (stereo not drawn) [Example 142, 2-(3{(4-carbamimidoyl-phenylamino)-[3-(3-dimethylamino-2,2-dimethylpropoxy)-5-ethyl-2-fluorophenyl]methyl}-5-oxo-4,5-dihydro-1H-[1,2,4]triazol-1-yl}benzoic acid bistrifluoroacetate] | 8.33
